Target: POLRMT (Homo sapiens (Human), UniProt O00411)
Test: homogeneous TR-FRET assay of mitochondrial transcription (inhibition of POLRMT)
Format: biochemical
Details: 7.5 nM POLRMT, 15 nM TFB2M, 30 nM TFAM, 0.5 nM DNA template, 500 μM NTPs, 37° C., 60 minutes
Description: The inhibitory activity of the compounds of the present invention against POLRMT were determined by assays based on Bergbrede, T., et al., “An adaptable high-throughput technology enabling the identification of specific transcription modulators,” SLAC Discov., 22, 378-386 (2017).
The ability of some compounds of the present invention to inhibit POLRMT were determined in a homogeneous TR-FRET Assay using high-throughput screening in a 384-well plate format. This method is used to monitor the activity of mitochondrial transcription through measurement of its product, a 407 bp long RNA transcript. Detection of the product is facilitated by hybridization of two DNA-oligonucleotide probes to specific and adjacent sequences within the RNA product sequence. Upon annealing of the probes, two fluorophores are coupled directly to an acceptor nucleotide probe (ATT0647, 5′), or introduced via a coupled streptavidin with a biotinylated donor nucleotide probe (Europium cryptate) that is brought into sufficient proximity to serve as a fluorescence-donor-acceptor pair. Thus, a FRET signal at 665 nm is generated upon excitation at 340 nm.
Proteins used as transcription factors (POLRMT: NP_005026.3, TFAM: NP_003192.1, TFB2M: NP_071761.1) are diluted from their stocks to working concentrations of 1 μM, 20 μM and 4 μM respectively, in a dilution buffer containing 20 mM Tris-HCl (pH 8.0), 200 mM NaCl, 10% (v/v) glycerol, 1 mM Dithiothreitol (DTT), 0.5 mM EDTA.
DNA template is a pUC18 plasmid with the mitochondrial light strand promotor sequence (1-477) cloned between HindIII and BamHI sites. The DNA template is restriction linearized proximal to the promotor 3′-end (pUC-LSP). The reaction mixture (10 uL) containing 7.5 nM POLRMT, 15 nM of TFB2M, 30 nM of TFAM, 0.5 nM of DNA template and 500 μM nucleotide triphosphate mix (NTPs) in a reaction buffer (containing 10 mM Tris-HCl (pH 7.5), 10 mM MgCl2, 40 mM NaCl, 10 mM DTT, 0.005% (w/v) Tween-20, 160 units/ml Rnase inhibitor and 0.1 mg/mL BSA) are dispensed to compounds in microplates, using a Thermo Multidrop® dispenser, and incubated at 37° C. in a VWR INCU-Line incubator for 60 minutes after mixing. No nucleotide triphosphate mix is added to negative control samples. Microplates with compounds to be tested in the assay are prepared from 10 mM compound stocks in 100% DMSO, equal amounts of DMSO without any compound are added to positive control and negative control samples.
During the incubation, a mix of the detection reagents is prepared in a buffer such that the enzymatic reaction is terminated due to chelating of Mg-ions and increased ionic strength, containing 50 mM Tris-HCl (pH 7.5), 700 mM NaCl, 20 mM EDTA, and 0.010% (w/v) Tween-20. Europium-streptavidin is pre-incubated with a 200-fold molar excess of a random sequence oligonucleotide to block unspecific binding of oligo, for two hours at ambient temperature in the dark. Afterwards, the blocked Europium-streptavidin is kept on ice until use.
At the end of the enzymatic reaction time, 5 μL detection oligo mix in the detection buffer is added, and assay plates are mixed and kept at ambient temperature for one hour, protected from light. The concentration of the Acceptor nucleotide oligo (e.g., ATTO647N-5′-[…]-3′) and Donor nucleotide oligo (e.g., bio-5′-AACACATCTCT(-bio)GCCAAACCCCA-bio-3′) in each assay well is 1 nM, and 3 nM, respectively.
After incubation with oligo mix, 5 μL of pre-blocked Europium-streptavidin reagent is dispensed to each assay well, assay plates are again mixed and kept at ambient temperature for one hour, protected from light.
The generated signal is measured with BMG Pherastar microtiter plate reader with a TRF light unit, using excitation at 340 nm, an integration time of 200 μs, and a delay time of 100 μs, before detection at 620 nm and 665 nm. The ratio of donor- and acceptor-fluorescence is used as a measure of the generated transcript product (i.e. enzymatic activity).

POLRMT, sequence (O00411 42-1230): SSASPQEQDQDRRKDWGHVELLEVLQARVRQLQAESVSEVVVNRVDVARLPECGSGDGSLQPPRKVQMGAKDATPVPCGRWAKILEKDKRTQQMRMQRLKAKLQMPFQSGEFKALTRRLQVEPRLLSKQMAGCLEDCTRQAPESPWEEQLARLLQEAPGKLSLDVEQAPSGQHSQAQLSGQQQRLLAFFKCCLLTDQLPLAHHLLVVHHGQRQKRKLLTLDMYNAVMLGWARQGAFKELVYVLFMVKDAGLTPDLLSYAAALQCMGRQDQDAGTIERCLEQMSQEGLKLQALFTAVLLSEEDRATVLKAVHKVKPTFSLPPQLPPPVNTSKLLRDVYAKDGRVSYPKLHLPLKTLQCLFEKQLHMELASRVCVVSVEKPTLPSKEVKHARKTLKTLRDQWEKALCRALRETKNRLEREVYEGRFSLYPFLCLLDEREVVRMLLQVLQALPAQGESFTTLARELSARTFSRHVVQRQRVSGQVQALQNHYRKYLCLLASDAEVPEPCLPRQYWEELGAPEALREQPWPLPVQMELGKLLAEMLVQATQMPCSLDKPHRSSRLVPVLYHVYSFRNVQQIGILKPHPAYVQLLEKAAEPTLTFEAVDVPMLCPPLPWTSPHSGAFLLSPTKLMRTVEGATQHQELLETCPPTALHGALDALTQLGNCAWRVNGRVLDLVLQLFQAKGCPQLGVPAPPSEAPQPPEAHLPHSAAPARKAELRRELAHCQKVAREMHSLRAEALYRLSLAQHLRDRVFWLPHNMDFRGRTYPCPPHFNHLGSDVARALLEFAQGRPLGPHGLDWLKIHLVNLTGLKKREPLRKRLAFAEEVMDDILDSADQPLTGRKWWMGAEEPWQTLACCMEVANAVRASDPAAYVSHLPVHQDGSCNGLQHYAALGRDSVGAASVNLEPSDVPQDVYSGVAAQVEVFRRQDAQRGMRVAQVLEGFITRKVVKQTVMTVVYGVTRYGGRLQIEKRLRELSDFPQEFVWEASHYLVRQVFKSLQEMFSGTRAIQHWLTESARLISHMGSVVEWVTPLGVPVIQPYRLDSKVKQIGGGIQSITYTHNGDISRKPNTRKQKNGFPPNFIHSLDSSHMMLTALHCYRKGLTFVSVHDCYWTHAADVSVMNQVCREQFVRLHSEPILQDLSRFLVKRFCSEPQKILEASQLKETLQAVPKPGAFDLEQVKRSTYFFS

Molecule	IC50 [nM]
CCC(COC)Oc1ccc2c(-c3ccccc3C)cc(=O)oc2c1 (single isomer, unassigned) [Example 45, 7-((1-methoxybutan-2-yl)oxy)-4-(o-tolyl)-2H-chromen-2-one]	100
Cc1ccccc1-c1cc(=O)oc2cc(OC(C)C)ccc12 [Example 05, 7-isopropoxy-4-(o-tolyl)-2H-chromen-2-one]	100
Cc1ccccc1-c1cc(=O)oc2cc(OCCN(C)C)ccc12 [Example 08, 7-(2-(dimethylamino)ethoxy)-4-(o-tolyl)-2H-chromen-2-one]	94000
CCCOc1ccc2c(-c3ccncc3C)cc(=O)oc2c1 [Example 54, 4-(3-methylpyridin-4-yl)-7-propoxy-2H-chromen-2-one]	3000
COCC(C)Oc1ccc2c(-c3ccccc3C)cc(=O)oc2c1 (racemic) [Example 25, 7-((1-methoxypropan-2-yl)oxy)-4-(o-tolyl)-2H-chromen-2-one]	300
COCC(Oc1ccc2c(-c3ccc(F)cc3Cl)cc(=O)oc2c1)C(N)=O (single isomer, unassigned) [Example 75, 2-((4-(2-chloro-4-fluorophenyl)-2-oxo-2H-chromen-7-yl)oxy)-3-methoxypropanamide]	2000
CCCOc1ccc2c(-c3cccc4c3OCCO4)cc(=O)oc2c1 [Example 36, 4-(2,3-dihydrobenzo[b][1,4]dioxin-5-yl)-7-propoxy-2H-chromen-2-one]	50000
CNC(=O)CCOc1ccc2c(-c3ccccc3C)cc(=O)oc2c1 [Example 12, N-methyl-3-((2-oxo-4-(o-tolyl)-2H-chromen-7-yl)oxy)propanamide]	7000
CCCOc1ccc2c(-c3ncccc3C)cc(=O)oc2c1 [Example 64, 4-(3-methylpyridin-2-yl)-7-propoxy-2H-chromen-2-one]	54000
Cc1ccccc1-c1cc(=O)oc2cc(O)ccc12 [Example 01, 7-hydroxy-4-(o-tolyl)-2H-chromen-2-one]	3000
CCCOc1ccc2c(-c3ccccc3OC)cc(=O)oc2c1 [Example 35, 4-(2-methoxyphenyl)-7-propoxy-2H-chromen-2-one]	6000
O=C([C@@H](CO)Oc1ccc2c(-c3ccc(F)cc3Cl)cc(=O)oc2c1)N1CCCCC1 [Example 15, (R)-4-(2-chloro-4-fluorophenyl)-7-((3-hydroxy-1-oxo-1-(piperidin-1-yl)propan-2-yl)oxy)-2H-chromen-2-one]	400
CCCOc1ccc2c(-c3ccccc3C(F)(F)F)cc(=O)oc2c1 [Example 30, 7-propoxy-4-(2-(trifluoromethyl)phenyl)-2H-chromen-2-one]	1000
CNC(=O)[C@@H](COC)Oc1ccc2c(-c3ccccc3C)cc(=O)oc2c1 [Example 70, (R)-3-methoxy-N-methyl-2-((2-oxo-4-(o-tolyl)-2H-chromen-7-yl)oxy)propenamide]	900
2-((4-(2-chloro-4-fluorophenyl)-2-oxo-2H-chromen-7-yl)oxy)-3-methoxypropanamide [Example 76]	44000
Cc1ccccc1-c1cc(=O)oc2cc(OCCO)ccc12 [Example 03, 7-(2-hydroxyethoxy)-4-(o-tolyl)-2H-chromen-2-one]	2000
Cc1cc(O[C@H](C)C(=O)N2CCCCC2)cc2oc(=O)cc(-c3ccc(F)cc3)c12 [Example 19, 4-(4-fluorophenyl)-5-methyl-7-[(1R)-1-methyl-2-oxo-2-(1-piperidyl)ethoxy]chromen-2-one]	500
Cc1ccccc1-c1cc(=O)oc2cc(OC3CCCOC3)ccc12 (single isomer, unassigned) [Example 48, 7-((tetrahydro-2H-pyran-3-yl)oxy)-4-(o-tolyl)-2H-chromen-2-one]	3000
CCCOc1ccc2c(-c3cccnc3C)cc(=O)oc2c1 [Example 53, 4-(2-methylpyridin-3-yl)-7-propoxy-2H-chromen-2-one]	800
CNC(=O)[C@H](COC)Oc1ccc2c(-c3ccccc3C)cc(=O)oc2c1 [Example 69, (S)-3-methoxy-N-methyl-2-((2-oxo-4-(o-tolyl)-2H-chromen-7-yl)oxy)propenamide]	17000
Cc1ccccc1-c1cc(=O)oc2cc(OC3CCOCC3)ccc12 [Example 28, 7-((tetrahydro-2H-pyran-4-yl)oxy)-4-(o-tolyl)-2H-chromen-2-one]	500

Continued, values first:

IC50 [nM]	Molecule
5000	COCC(Oc1ccc2c(-c3ccccc3C)cc(=O)oc2c1)C(=O)NCC(F)(F)F (single isomer, unassigned) [Example 82, 3-methoxy-2-((2-oxo-4-(o-tolyl)-2H-chromen-7-yl)oxy)-N-(2,2,2-trifluoroethyl)propanamide]
500	COCCNC(=O)C(COC)Oc1ccc2c(-c3ccccc3C)cc(=O)oc2c1 (single isomer, unassigned) [Example 88, 3-methoxy-N-(2-methoxyethyl)-2-((2-oxo-4-(o-tolyl)-2H-chromen-7-yl)oxy)propanamide]
36000	COCCNC(=O)C(COC)Oc1ccc2c(-c3ccccc3C)cc(=O)oc2c1 (single isomer, unassigned) [Example 87, 3-methoxy-N-(2-methoxyethyl)-2-((2-oxo-4-(o-tolyl)-2H-chromen-7-yl)oxy)propanamide]
16000	Cc1ccccc1-c1cc(=O)oc2cc(O[C@@H](CO)C(=O)O)ccc12 [Example 103, (S)-3-hydroxy-2-((2-oxo-4-(o-tolyl)-2H-chromen-7-yl)oxy)propanoic acid]
500	COCC(Oc1ccc2c(-c3ccccc3Cl)cc(=O)oc2c1)C(N)=O (single isomer, unassigned) [Example 96, 2-((4-(2-chlorophenyl)-2-oxo-2H-chromen-7-yl)oxy)-3-methoxypropanamide]
32000	Cc1ccccc1-c1cc(=O)oc2cc(OC(CO)C(=O)N(C)C)ccc12 (single isomer, unassigned) [Example 79, 3-hydroxy-N,N-dimethyl-2-[4-(o-tolyl)-2-oxo-2H-chromen-7-yl]oxy-propanamide]
200	COCC(Oc1ccc2c(-c3ccccc3C)cc(=O)oc2c1)C(=O)N1CCC1 (single isomer, unassigned) [Example 89, 7-((1-(azetidin-1-yl)-3-methoxy-1-oxopropan-2-yl)oxy)-4-(o-tolyl)-2H-chromen-2-one]
200	COCC(Oc1ccc2c(-c3ccc(F)cc3Cl)cc(=O)oc2c1)C(=O)N(C)C (single isomer, unassigned) [Example 85, 2-((4-(2-chloro-4-fluorophenyl)-2-oxo-2H-chromen-7-yl)oxy)-3-methoxy-N,N-dimethylpropanamide]
200	Cc1ccccc1-c1cc(=O)oc2cc(OCC(N)=O)ccc12 [Example 108, 2-((2-oxo-4-(o-tolyl)-2H-chromen-7-yl)oxy)acetamide]
300	Cc1ccccc1-c1cc(=O)oc2cc(OC(C)C(F)(F)F)ccc12 (centres unmarked) [Example 109, 4-(o-tolyl)-7-((1,1,1-trifluoropropan-2-yl)oxy)-2H-chromen-2-one]
90	COCC(Oc1ccc2c(-c3ccccc3Cl)cc(=O)oc2c1)C(=O)N(C)C (single isomer, unassigned) [Example 94, 2-((4-(2-chlorophenyl)-2-oxo-2H-chromen-7-yl)oxy)-3-methoxy-N,N-dimethylpropanamide]

From patent US20240368106A1, “HYDROXY AND ALKOXY COUMARINS AS MODULATORS OF POLRMT” (Pretzel Therapeutics, Inc., priority 2021, published 2024)
